Reference: the supplement of paper PMC12463676, “Small-molecule dissolution of stress granules by redox modulation benefits ALS models” (Nature Chemical Biology, 2025)

Key:
lipoamide = compound: NC(=O)CCCCC1CCSS1 [lipoamide]; assay: thermal stability z-score vs DMSO; higher = more thermally stabilized by treatment; settings: HeLa, lipoamide concentration 100 µM
Method: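 Cellular thermal proteome profiling in HeLa cells. Cells were treated with 100 µM lipoamide for 1 h, with or without 1 mM arsenate for a further 1 h, then heated to ten temperatures (37-66.3 °C), and soluble protein was quantified by TMT mass spectrometry relative to 0.1% DMSO controls. The thermal stability score (sum of log2 fold changes minus the abundance score) was transformed to a z-score; mean of n = 3 experiments.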

potassium arsenate = compound: O=[As]([O-])(O)O.[K+] [potassium arsenate]; assay: as above; settings: HeLa; arsenate concentration 1 mM
Method: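 Cellular thermal proteome profiling in HeLa cells treated with 1 mM arsenate for 1 h (DMSO pretreatment), heated to ten temperatures (37-66.3 °C). Soluble protein was quantified by TMT mass spectrometry relative to DMSO controls; the thermal stability score was transformed to a z-score; mean of n = 3 experiments.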

[1] = arsenate co-treatment: 1 mM arsenate 1 h
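Note: each temperature applied for 3 min, abundance score taken as mean log2 fold change at the two lowest temperatures, z-score obtained by mean subtraction and division by SD.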

Chain of UniProt P78332 (P78332 whole entry): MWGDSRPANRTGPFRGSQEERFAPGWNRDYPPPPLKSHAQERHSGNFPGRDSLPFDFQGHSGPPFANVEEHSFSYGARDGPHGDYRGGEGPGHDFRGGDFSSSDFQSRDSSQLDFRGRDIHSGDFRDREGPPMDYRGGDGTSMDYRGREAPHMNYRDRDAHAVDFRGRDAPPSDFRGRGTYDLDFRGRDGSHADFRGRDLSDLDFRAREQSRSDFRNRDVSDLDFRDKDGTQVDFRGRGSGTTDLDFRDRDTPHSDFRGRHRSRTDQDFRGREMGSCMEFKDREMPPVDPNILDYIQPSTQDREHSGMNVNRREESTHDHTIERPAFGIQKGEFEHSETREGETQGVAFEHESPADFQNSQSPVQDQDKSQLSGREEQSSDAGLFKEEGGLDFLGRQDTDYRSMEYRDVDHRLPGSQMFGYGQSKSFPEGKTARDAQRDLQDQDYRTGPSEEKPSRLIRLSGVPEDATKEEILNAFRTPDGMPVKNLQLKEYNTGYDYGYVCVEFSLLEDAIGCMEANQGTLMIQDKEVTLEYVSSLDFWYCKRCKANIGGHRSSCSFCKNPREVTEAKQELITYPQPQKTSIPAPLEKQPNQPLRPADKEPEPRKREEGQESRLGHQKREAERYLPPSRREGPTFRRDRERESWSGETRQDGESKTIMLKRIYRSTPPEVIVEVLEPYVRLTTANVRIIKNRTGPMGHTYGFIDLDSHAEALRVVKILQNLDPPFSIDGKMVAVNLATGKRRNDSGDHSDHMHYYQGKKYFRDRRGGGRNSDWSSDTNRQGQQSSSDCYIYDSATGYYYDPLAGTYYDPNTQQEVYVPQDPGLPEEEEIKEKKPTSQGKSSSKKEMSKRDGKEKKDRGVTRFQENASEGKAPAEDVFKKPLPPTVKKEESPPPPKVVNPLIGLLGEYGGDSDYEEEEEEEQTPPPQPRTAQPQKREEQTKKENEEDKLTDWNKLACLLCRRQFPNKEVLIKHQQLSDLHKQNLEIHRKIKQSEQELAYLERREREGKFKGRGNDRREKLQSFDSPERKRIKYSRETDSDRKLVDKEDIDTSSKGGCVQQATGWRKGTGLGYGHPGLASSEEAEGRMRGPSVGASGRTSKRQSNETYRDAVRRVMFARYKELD
Chain of UniProt Q6UX65 (Q6UX65 whole entry): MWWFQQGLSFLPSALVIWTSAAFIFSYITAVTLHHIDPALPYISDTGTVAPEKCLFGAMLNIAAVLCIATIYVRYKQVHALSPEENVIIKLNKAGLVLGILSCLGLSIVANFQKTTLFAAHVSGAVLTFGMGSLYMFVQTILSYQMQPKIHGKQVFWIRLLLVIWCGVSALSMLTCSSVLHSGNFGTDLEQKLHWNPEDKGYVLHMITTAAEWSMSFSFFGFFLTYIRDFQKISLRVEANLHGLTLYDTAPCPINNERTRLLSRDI
Chain of UniProt Q8TDN4 (Q8TDN4 whole entry): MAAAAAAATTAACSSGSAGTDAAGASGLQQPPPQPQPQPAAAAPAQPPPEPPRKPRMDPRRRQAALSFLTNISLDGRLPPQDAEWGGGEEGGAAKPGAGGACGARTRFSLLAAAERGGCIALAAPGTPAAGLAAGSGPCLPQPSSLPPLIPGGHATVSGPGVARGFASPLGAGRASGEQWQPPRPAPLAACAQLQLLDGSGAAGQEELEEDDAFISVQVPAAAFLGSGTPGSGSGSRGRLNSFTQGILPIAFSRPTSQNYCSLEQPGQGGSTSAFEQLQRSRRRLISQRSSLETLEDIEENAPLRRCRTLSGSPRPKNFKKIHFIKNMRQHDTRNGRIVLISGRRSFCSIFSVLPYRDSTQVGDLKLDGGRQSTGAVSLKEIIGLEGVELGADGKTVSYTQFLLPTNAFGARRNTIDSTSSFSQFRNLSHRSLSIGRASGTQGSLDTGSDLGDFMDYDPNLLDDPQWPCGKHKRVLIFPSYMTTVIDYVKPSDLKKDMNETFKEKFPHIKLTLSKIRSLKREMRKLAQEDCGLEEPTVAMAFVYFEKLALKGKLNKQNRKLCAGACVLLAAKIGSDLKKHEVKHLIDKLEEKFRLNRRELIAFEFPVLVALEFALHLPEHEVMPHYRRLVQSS
Chain of UniProt O43164 (O43164 whole entry): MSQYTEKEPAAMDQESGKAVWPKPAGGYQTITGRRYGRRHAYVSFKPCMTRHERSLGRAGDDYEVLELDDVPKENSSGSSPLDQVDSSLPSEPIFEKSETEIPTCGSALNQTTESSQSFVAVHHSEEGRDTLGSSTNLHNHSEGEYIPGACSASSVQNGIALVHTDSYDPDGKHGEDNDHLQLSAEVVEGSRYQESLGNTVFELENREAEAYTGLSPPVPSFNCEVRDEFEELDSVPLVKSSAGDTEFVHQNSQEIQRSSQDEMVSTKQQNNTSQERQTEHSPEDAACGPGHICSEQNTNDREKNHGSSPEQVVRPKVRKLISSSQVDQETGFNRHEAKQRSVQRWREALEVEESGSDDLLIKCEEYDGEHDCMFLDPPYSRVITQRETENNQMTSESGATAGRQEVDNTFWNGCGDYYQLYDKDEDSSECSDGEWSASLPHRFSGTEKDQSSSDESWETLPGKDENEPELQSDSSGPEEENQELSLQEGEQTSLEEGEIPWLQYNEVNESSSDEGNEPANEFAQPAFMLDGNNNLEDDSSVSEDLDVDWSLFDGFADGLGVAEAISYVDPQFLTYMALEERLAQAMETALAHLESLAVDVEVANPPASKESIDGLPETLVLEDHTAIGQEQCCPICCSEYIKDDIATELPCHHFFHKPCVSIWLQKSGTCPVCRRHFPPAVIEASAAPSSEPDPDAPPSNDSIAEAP
Chain of UniProt P07711 (P07711 whole entry, looked up): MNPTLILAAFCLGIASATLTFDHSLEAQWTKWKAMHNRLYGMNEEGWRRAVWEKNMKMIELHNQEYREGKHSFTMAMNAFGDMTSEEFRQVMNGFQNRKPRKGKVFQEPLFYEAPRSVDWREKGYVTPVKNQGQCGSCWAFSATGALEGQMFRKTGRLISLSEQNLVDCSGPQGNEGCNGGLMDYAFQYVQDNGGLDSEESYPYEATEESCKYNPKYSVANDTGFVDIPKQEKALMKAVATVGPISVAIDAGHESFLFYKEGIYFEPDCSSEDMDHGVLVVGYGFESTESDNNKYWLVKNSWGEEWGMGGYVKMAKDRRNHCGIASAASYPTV
Chain of UniProt P50990 (P50990 whole entry): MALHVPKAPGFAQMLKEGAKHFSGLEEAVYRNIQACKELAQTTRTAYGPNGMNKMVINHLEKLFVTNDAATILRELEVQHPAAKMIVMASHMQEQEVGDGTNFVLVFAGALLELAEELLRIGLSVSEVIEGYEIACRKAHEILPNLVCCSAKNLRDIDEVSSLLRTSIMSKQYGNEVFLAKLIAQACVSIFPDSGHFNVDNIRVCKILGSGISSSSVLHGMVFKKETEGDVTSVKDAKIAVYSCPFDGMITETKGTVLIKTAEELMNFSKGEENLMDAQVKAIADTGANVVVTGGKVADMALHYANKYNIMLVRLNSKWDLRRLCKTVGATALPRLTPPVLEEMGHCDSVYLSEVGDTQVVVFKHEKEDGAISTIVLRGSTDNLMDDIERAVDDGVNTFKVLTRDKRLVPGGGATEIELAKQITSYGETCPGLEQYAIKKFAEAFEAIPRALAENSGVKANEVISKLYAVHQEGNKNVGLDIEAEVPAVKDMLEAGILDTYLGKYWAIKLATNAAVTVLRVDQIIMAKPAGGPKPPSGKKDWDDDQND
Chain of UniProt Q13470 (Q13470 whole entry): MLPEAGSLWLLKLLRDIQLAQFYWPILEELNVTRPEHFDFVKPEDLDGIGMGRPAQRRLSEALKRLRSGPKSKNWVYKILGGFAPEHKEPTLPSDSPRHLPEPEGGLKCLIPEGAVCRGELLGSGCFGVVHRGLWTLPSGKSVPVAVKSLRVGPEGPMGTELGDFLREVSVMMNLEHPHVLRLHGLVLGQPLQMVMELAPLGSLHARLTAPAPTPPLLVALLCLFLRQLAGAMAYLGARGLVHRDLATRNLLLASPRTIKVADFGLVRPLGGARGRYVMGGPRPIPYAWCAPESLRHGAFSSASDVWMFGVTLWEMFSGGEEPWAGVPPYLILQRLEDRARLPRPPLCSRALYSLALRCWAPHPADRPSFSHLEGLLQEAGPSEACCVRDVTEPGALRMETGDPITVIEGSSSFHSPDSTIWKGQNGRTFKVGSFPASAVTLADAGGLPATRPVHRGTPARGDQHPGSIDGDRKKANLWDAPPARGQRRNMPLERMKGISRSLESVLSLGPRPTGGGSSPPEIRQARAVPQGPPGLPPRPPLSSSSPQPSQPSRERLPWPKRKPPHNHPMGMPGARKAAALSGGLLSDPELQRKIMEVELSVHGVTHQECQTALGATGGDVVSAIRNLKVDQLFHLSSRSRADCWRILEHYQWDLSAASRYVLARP
Chain of UniProt P48382 (P48382 whole entry): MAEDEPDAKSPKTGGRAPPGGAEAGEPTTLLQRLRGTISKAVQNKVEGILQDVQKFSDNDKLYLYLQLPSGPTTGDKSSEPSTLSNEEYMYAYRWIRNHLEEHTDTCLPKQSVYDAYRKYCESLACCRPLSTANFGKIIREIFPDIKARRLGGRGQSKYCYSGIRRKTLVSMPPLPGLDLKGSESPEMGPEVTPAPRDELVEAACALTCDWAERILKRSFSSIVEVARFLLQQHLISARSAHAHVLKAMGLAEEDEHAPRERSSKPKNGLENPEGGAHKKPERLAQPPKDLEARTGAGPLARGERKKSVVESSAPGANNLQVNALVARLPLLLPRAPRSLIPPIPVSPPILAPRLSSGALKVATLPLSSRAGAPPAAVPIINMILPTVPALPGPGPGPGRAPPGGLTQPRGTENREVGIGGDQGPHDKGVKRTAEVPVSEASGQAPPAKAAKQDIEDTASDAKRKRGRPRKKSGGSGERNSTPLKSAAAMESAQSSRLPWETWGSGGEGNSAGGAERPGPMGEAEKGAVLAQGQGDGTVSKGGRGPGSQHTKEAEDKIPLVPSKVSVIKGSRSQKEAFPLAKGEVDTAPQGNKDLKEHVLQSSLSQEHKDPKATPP

Target	thermal stability z-score (lipoamide; [1])	thermal stability z-score (lipoamide; arsenate co-treatment: none)	thermal stability z-score (potassium arsenate)
CTSL (UniProt P07711)	-0.924	-0.44	0.977
PGRMC2 (UniProt O15173)	0.682	0.466	0.479
GDI2 (UniProt P50395)	0.452	0.275	-0.47
TNK1 (UniProt Q13470)	0.0556	0.223	-0.0895
DRAM2 (UniProt Q6UX65)	0.00378	-0.247	1.26
COG1 (UniProt Q8WTW3)	-0.441	-0.42	0.183
TBL3 (UniProt Q12788)	0.0946	-0.105	-0.338
ASCC1 (UniProt Q8N9N2)	-1.01	-0.215	-0.708
SLC25A6 (UniProt P12236)	0.809	0.762	0.433
RFX5 (UniProt P48382)	0.562	0.613	0.132
PPCS (UniProt Q9HAB8)	-0.183	0.122	-0.328
PSME2 (UniProt Q9UL46)	0.493	0.0915	0.951
MGST1 (UniProt P10620)	0.304	-0.147	0.892
PLA2G15 (UniProt Q8NCC3)	-0.718	-0.487	0.38
RBM6 (UniProt P78332)	-0.00588	0.0644	0.000188
NUP98 (UniProt P52948)	-0.415	-0.292	0.214
ZNHIT2 (UniProt Q9UHR6)	-0.047	0.147	-0.28
AIF1L (UniProt Q9BQI0)	-0.218	-0.305	-0.374
CSNK2A2 (UniProt P19784)	0.339	0.183	0.00534
DDOST (UniProt P39656)	-3.14	-2.49	0.00935
MGST3 (UniProt O14880)	0.65	0.431	2.22
GPR108 (UniProt Q9NPR9)	0.455	-0.359	0.967
SNRNP70 (UniProt P08621)	-0.195	-0.247	-0.58
ALDH16A1 (UniProt Q8IZ83)	-0.127	-0.311	-0.784
NOL3 (UniProt O60936)	0.615	0.549	0.236
PPM1G (UniProt O15355)	0.2	0.916	-0.0978
FSCN1 (UniProt Q16658)	0.0281	-0.236	-1.09
OAS1 (UniProt P00973)	-0.156	0.0182	-0.247

Target	thermal stability z-score (lipoamide; [1])	thermal stability z-score (lipoamide; arsenate co-treatment: none)	thermal stability z-score (potassium arsenate)
NUP153 (UniProt P49790)	0.99	0.627	3.83
CCT8 (UniProt P50990)	-0.0223	-0.0937	-0.245
IMPDH2 (UniProt P12268)	-0.759	-0.205	1.25
WDR61 (UniProt Q9GZS3)	0.936	0.285	-0.236
HMGN2 (UniProt P05204)	1.04	0.752	0.0894
RBM14 (UniProt Q96PK6)	-0.169	-0.0944	-0.803
HGS (UniProt O14964)	0.268	0.638	0.102
MAPRE3 (UniProt Q9UPY8)	0.142	-0.216	-0.102
ARHGEF1 (UniProt Q92888)	-0.381	-0.242	0.0617
CTSC (UniProt P53634)	-0.492	-0.279	-0.148
TNIP2 (UniProt Q8NFZ5)	0.0235	0.193	0.126
PDXP (UniProt Q96GD0)	0.0465	0.133	-0.658
NME1|NME2	0.455	0.432	0.487
ATXN3 (UniProt P54252)	0.199	0.278	-0.115
PNPO (UniProt Q9NVS9)	0.101	0.677	-0.734
DNAJC15 (UniProt Q9Y5T4)	0.824	0.507	-0.793
BRI3BP (UniProt Q8WY22)	0.227	0.0879	-0.544
CACTIN (UniProt Q8WUQ7)	-0.265	-0.163	-0.0248
TRAF3IP1 (UniProt Q8TDR0)	0.519	0.373	0.694
NARF (UniProt Q9UHQ1)	0.102	-0.133	-0.0435
MRPL35 (UniProt Q9NZE8)	-0.257	-0.048	0.129
MANBA (UniProt O00462)	-1.33	-1.4	-0.726
PJA2 (UniProt O43164)	-0.202	-0.163	-3.43
OVCA2 (UniProt Q8WZ82)	-0.0187	0.0328	-0.0892
PLS1 (UniProt Q14651)	0.258	0.506	-0.0678
CABLES1 (UniProt Q8TDN4)	0.124	0.218	-0.0215
CNOT10 (UniProt Q9H9A5)	-0.532	0.228	0.677
